Measured values taken from PubChem BioAssay AID1996.
In brackets after ≈: the same amount, converted by molar mass.

settings: buffer; pH 7.4; 200.0 µM

Row | solubility kinetic [mg/mL] | SMILES
1 | 0.0226 (≈ 75.2 µM) | CC1(C)CC(=O)c2sc(NC(=O)c3ccccc3)nc2C1
2 | 0.0325 (≈ 121 µM) | Cc1cc(Nc2cccc(Cl)c2)c2ccccc2n1
3 | 0.0339 (≈ 101 µM) | Cc1cc(NC(=O)C2=C(O)c3ccccc3S(=O)(=O)N2C)no1
4 | 0.0278 (≈ 88.1 µM) | Cc1ccccc1Cn1c(-c2ccc(=O)[nH]c2)nc2ccccc21
5 | > 0.0454 | CC(C)c1ccccc1NC(=S)NCCCn1ccnc1
6 | > 0.0399 | O=C(NCCc1cccs1)c1ccc(Cl)cc1
7 | 0.0346 (≈ 141 µM) | CSc1ncccc1C(=O)Nc1ccncc1
8 | 0.0044 (≈ 17 µM) | COc1ccc(-c2nc3ccccn3c2Cl)cc1
9 | > 0.0389 | CCOC(=O)c1ccc(NC(=O)c2ccco2)cc1
10 | 0.001 (≈ 3.39 µM) | CCOc1ncccc1C(=O)Nc1ccc(F)c(Cl)c1
11 | 0.0344 (≈ 121 µM) | Cc1cccc(OCCNC(=O)CCc2ccccc2)c1
12 | 0.001 (≈ 3.48 µM) | CSc1ncccc1C(=O)OCC(=O)c1ccccc1
13 | 0.0397 (≈ 119 µM) | CCc1ccc(C(=O)Nc2ccc(C)c(NS(C)(=O)=O)c2)cc1
14 | 0.0292 (≈ 102 µM) | Cc1ccc(OCCNC(=O)Cc2ccc(F)cc2)cc1
15 | < 0.0003 | Cc1ccc(NC(=O)Nc2ccc3c(c2)CCC3)cc1
16 | > 0.044 | N#C/C(=C\c1ccncc1)C(=O)Nc1ccc(C(=O)O)cc1
17 | > 0.0505 | CC(CC(=O)N1CCN(C(=O)c2ccccc2)CC1)c1ccccc1 (stereo not given)
18 | > 0.0532 | O=C(Nc1ccc(F)cc1)c1ccc(S(=O)(=O)N2CCOCC2)o1
19 | 0.0231 (≈ 84.8 µM) | Cc1ccc(NC(=O)O/N=C/c2ccc(F)cc2)cc1
20 | 0.0478 (≈ 140 µM) | COc1ccccc1Oc1coc2cc(OCC(N)=O)ccc2c1=O
21 | 0.0075 (≈ 25.7 µM) | CC(O)c1cccc(N=Cc2ccc3ccccc3c2O)c1 (stereo not given)
22 | > 0.0464 | C=C(C)c1cccc(C(C)(C)NC(=O)NCc2ccncc2)c1
23 | 0.0042 (≈ 9.57 µM) | O=C(Nc1cc(S(=O)(=O)Nc2ccc(Cl)cc2)ccc1O)c1ccc(F)cc1F
24 | > 0.0335 | O=C(Nc1ccc(F)c(F)c1)c1ccco1
25 | 0.0349 (≈ 133 µM) | Cn1c(-c2ccccc2)cnc1NCc1ccccc1
26 | 0.0259 (≈ 75.4 µM) | CC1CC(Nc2ccccc2)c2ccccc2N1C(=O)c1ccncc1 (stereo not given)
27 | 0.0383 (≈ 118 µM) | NS(=O)(=O)c1ccc(CNC(=O)c2cccnc2Cl)cc1
28 | 0.0122 (≈ 35.7 µM) | CCC(=O)c1ccc(OCC(=O)Nc2ccc3c(c2)OCCO3)cc1
29 | 0.0045 (≈ 14.3 µM) | CCNc1c(NC(=O)c2cccs2)c(=O)oc2ccccc12
30 | 0.0029 (≈ 9.69 µM) | O=C(Nc1nc2ccccc2s1)c1ccccc1[N+](=O)[O-]

Further lines, the compound ahead of its results:

Row | SMILES | solubility kinetic [mg/mL]
31 | Cl.O=C(COc1ccc(F)cc1)NCCN1CCCC1 | > 0.0454
32 | CSc1ccccc1NC(=S)NC1CCCC1 | > 0.04
33 | CS(=O)(=O)c1cccc(S(=O)(=O)N2CCCCCC2)c1 | > 0.0476
34 | CN(C)Cc1c(O)ccc2c(=O)c(-c3ccc(Cl)cc3)coc12 | > 0.0495
35 | O=C1CC(=O)N(c2cccc(Br)c2)C(=O)N1 | 0.0392 (≈ 138 µM)
36 | CCNC(=S)N1CCCCC1CO (stereo not given) | 0.0272 (≈ 134 µM)
37 | CC(=O)c1c(O)c2ccccc2n(C(C)C)c1=O | 0.0297 (≈ 121 µM)
38 | C=CCC(=O)N1CCCC(CCC(=O)NCc2ccccc2F)C1 (stereo not given) | > 0.0499
39 | CCN1CCC(O)(C#Cc2ccccc2)CC1 | 0.0335 (≈ 146 µM)
40 | O=C(COC(=O)c1ccc(Cl)cc1)NCC1CCCCC1 | 0.0054 (≈ 17.4 µM)
41 | CC(C)NC(=O)COC(=O)c1ccc(Cl)c(S(N)(=O)=O)c1 | > 0.0502
42 | COc1cc2c(cc1OC)CN(Cc1ccc(F)cc1)CC2 | 0.0357 (≈ 118 µM)
43 | COc1cccc(C(O)c2cnc(C(C)C)n2C)c1 (stereo not given) | > 0.0391
44 | Cc1ccc(NC(=O)CCC(=O)c2ccc(Cl)s2)nc1 | 0.0075 (≈ 24.3 µM)
45 | C=CCc1ccccc1Oc1cc(OC)nc(N)n1 | > 0.0386
46 | O=C(Nc1nccs1)c1cccnc1Cl | > 0.036
47 | Clc1ccccc1CN1CCN(c2cccc3[nH]ccc23)CC1 | 0.0235 (≈ 72.1 µM)
48 | Cc1c[nH]c(=O)c([N+](=O)[O-])c1 | > 0.0231
49 | Cc1nn(CC(=O)NC2CCS(=O)(=O)C2)c(C)c1[N+](=O)[O-] (stereo not given) | > 0.0474
50 | O=C(N/C(=C/c1ccco1)C(=O)N1CCOCC1)c1ccc([N+](=O)[O-])cc1 | > 0.0557
51 | C/C(=N\O)C(=O)C(CN1CCCCC1)CN1CCCCC1 | 0.0302 (≈ 102 µM)
52 | CCc1ccccc1NC(=O)CN(C1CCCCC1)S(C)(=O)=O | > 0.0508
53 | CCN1C(=O)c2cccc3c(S(=O)(=O)N(C(C)=O)c4ccc(OC(C)=O)cc4)ccc1c23 | 0.0043 (≈ 9.5 µM)
54 | CC(C)(C)c1cc(NC(=O)c2ccco2)no1 | > 0.0351
55 | COc1ccccc1/C=C/CN1CCCCC1 | 0.0258 (≈ 112 µM)
56 | Cc1ccc(C2(c3noc(CN(C)CC4CCCCO4)n3)CCCC2)cc1 (stereo not given) | 0.0212 (≈ 57.4 µM)
57 | Cc1cc(-c2onc(C)c2C(=O)Nc2ccc(C(F)(F)F)cc2)no1 | < 0.0003
58 | Cc1cccc(C)c1NC(=O)COC(=O)c1ccc([N+](=O)[O-])o1 | 0.0343 (≈ 108 µM)
59 | CCOc1cc2c(cc1OCC)C(c1ccc(F)cc1)NCC2 (stereo not given) | > 0.0473
60 | COc1ccc(CN2CCSc3sccc3C2=O)cc1 | > 0.0458
